Measured values as given in ChEMBL document CHEMBL3621142, “Discovery and Evaluation of Clinical Candidate AZD3759, a Potent, Oral Active, Central Nervous System-Penetrant, Epidermal Growth Factor Receptor Tyrosine Kinase Inhibitor” (J Med Chem, 2015).

Key:
[1] = Drug metabolism in rat hepatocytes assessed as piperazine oxidation; format: ADME, cell-based, Hepatocyte
[2] = Permeability from apical to basolateral side in MDCK2-MDR1 cells; format: ADME, cell-based, Canis lupus familiaris, MDCK-II; settings: dog, MDCK-MDR1
[3] = Clearance in Han Wistar rat at 1 mg/kg, iv; format: ADME, organism-based; settings: in vivo
[4] = Elimination half life in Han Wistar rat at 1 mg/kg, iv; format: ADME, organism-based; settings: Han Wistar, in vivo, read-out: beta t1/2 (converted)
[5] = Cmax in Han Wistar rat at 5 mg/kg, po; format: ADME, organism-based; parameters: dose 5 mg/kg, route oral; settings: in vivo
[6] = Oral bioavailability in Han Wistar rat at 5 mg/kg; format: ADME, organism-based; settings: in vivo
[7] = AUC(0 to 24 hrs) in Han Wistar rat at 5 mg/kg, po; format: ADME, organism-based; parameters: dose 5 mg/kg, time < 24 hr, route oral; settings: in vivo
[8] = target: Epidermal growth factor receptor (Homo sapiens, UniProt P00533, L858R); format: cell-based, H3255
[9] = Fraction unbound in Han Wistar rat blood at 5 uM by equilibrium dialysis method; format: ADME, tissue-based; settings: Han Wistar
[10] = Ratio of unbound AUC (0 to 7 hrs) in brain to blood of Han Wistar rat at 2 mg/kg, po by LC-MS/MS analysis; format: ADME, organism-based; settings: Han Wistar, brain and blood, read-out: K(p,uu,brain)
[11] = Ratio of unbound AUC (0 to 7 hrs) in CSF to blood of Han Wistar rat at 2 mg/kg, po by LC-MS/MS analysis; format: ADME, organism-based; settings: Han Wistar, CSF and blood
[12] = Volume of distribution at steady state in Han Wistar rat at 1 mg/kg, iv; format: ADME, organism-based; settings: Han Wistar, in vivo, read-out: Vdss
[13] = AUC (0 to 7 hrs) in Han Wistar rat CSF at 2 mg/kg, po by LC-MS/MS analysis; format: ADME, organism-based, Cerebrospinal fluid; parameters: time < 7 hr, dose 2 mg/kg, route oral; settings: Han Wistar, CSF
[14] = AUC(0 to 24 hrs) in Han Wistar rat at 1 mg/kg, iv; format: ADME, organism-based; parameters: time < 24 hr, dose 1 mg/kg, route intravenous; settings: in vivo
[15] = AUC (0 to 7 hrs) in Han Wistar rat brain at 2 mg/kg, po by LC-MS/MS analysis; format: ADME, organism-based; parameters: dose 2 mg/kg, time < 7 hr, route oral; settings: Han Wistar, brain
[16] = Tmax in Han Wistar rat at 5 mg/kg, po; format: ADME, organism-based; settings: in vivo
[17] = AUC (0 to 7 hrs) in Han Wistar rat blood at 2 mg/kg, po by LC-MS/MS analysis; format: ADME, organism-based; parameters: dose 2 mg/kg, time < 7 hr, route oral; settings: Han Wistar, blood
MDR1 (P-gp) = test: Efflux ratio of permeability from basolateral to apical side over apical to basolateral side in MDCK2-MDR1 cells; format: ADME, cell-based, Canis lupus familiaris; settings: dog, MDCK-MDR1
[18] = Fraction unbound in Han Wistar rat brain at 5 uM by equilibrium dialysis method; format: ADME, tissue-based; settings: Han Wistar, brain

Chain of Epidermal growth factor receptor (P00533 25-1210 L858R limits assumed): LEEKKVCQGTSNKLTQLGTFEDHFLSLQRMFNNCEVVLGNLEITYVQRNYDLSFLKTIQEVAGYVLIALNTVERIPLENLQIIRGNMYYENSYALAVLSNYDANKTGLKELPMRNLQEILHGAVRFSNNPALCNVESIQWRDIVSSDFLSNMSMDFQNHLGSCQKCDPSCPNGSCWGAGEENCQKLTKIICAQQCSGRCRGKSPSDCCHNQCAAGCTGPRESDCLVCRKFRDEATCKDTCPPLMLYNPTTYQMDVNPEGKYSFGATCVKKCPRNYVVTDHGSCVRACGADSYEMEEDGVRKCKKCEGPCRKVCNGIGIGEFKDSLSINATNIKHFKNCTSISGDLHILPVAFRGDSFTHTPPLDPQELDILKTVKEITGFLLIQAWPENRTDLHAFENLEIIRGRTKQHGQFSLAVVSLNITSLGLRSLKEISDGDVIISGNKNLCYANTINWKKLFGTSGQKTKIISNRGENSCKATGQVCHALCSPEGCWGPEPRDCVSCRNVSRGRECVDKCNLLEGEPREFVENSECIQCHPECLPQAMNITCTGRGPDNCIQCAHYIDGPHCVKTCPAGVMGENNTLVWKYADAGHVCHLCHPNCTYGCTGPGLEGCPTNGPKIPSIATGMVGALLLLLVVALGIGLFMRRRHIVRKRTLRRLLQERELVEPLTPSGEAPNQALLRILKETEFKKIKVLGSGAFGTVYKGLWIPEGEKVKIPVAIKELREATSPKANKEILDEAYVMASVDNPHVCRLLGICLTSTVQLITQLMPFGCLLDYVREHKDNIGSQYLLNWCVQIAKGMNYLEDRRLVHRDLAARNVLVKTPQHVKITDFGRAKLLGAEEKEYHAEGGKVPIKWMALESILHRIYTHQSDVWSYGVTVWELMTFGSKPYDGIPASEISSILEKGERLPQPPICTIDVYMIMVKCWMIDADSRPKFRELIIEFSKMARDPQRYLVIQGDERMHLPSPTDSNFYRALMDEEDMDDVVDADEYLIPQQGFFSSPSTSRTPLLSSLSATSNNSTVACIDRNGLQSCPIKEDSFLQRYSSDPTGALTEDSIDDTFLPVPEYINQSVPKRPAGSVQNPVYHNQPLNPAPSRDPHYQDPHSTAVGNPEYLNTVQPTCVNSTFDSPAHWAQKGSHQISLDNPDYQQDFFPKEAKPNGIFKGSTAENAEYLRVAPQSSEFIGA

## COc1cc2ncnc(Nc3cccc(Cl)c3F)c2cc1OC(=O)N1CCN(C)CC1
[1]
  Drug metabolism: metabolite_detected
[2]
  Papp A→B: 28 ×10⁻⁶ cm/s
[3]
  clearance: 22 mL/min/kg
[4]
  half-life: 2.6 h
[5]
  Cmax: 2020 nM
[6]
  bioavailability: 45%
[7]
  AUC(0-t) at 24 h: 3.91 µM·h
[8]
  IC50: 5 nM
[9]
  fraction unbound at 5 µM: 0.084
[10]
  Kp uu: 0.34
[11]
  Kp uu: 0.52
[12]
  Vd: 1.8 L/kg
[13]
  AUC(0-t) at 7 h: 0.031 µM·h
[14]
  AUC(0-t) at 24 h: 1.71 µM·h
[15]
  AUC(0-t) at 7 h: 0.825 µM·h
[16]
  Tmax: 0.25 h
[17]
  AUC(0-t) at 7 h: 0.722 µM·h
MDR1 (P-gp)
  efflux ratio: 0.37
[18]
  fraction unbound at 5 µM: 0.025
